Source: patent US5773413A, “Method of combating mammalian neoplasias, and lytic peptides therefor” (Demeter Biotechnologies, Ltd., priority 1995, dated 1998)
Where a SMILES comes first, the peptide text is derived from it. [ ]: non-standard residue; d: D form. The star is where a group is joined. NMe2Phe = CN(C)[C@@H](Cc1ccccc1)C(=O)*; Lys(Me2) = CN(C)CCCC[C@H](N)C(=O)O

What was measured:
[1] = ALD evaluation, iv administration in rat; format: in vivo; details: for [μM] T = 0, lethal concentration: first value of the cell, assigned to rat iv because it fits μmol Riv; for μg/dose (Riv), lethal dose / μmol Riv, lethal dose: iv administration in rat; for Lethality, verification dosing: 10.0 μM, one naive animal
Experimental: (§1) In the following description, Riv=iv administration in rat, Rim=intramuscular administration in rat, Miv=iv administration in mouse, and Mim=intramuscular administration in mouse.
(§2) Lethality data and clinical observations were collected during the ALD evalution of the peptides denoted D5-F, DP-1, DP-1m. The data presented below are complete for D5-F and DP-1.
(§3) For all three compounds, two replicates were performed with both mice and rats. In the first replicate, the animals (one animal/dose) were exposed to a range of doses, 10.0, 5.0, 2.5, 1.0, 0.5, 0.25, 0.1, 0.05, 0.025, and 0.01 μM. For the second replicate, the lethal dose was diluted to produce an intermediate dose between the lethal dose and the subsequent nonlethal dose.
Replicate2: For all compounds, the high dose was diluted to 7.5 μM for the second replicate. The doses administered were 7.5, 5.0, 2.5, 1.0, 0.5. 0.25, and 0.1 μM. D5F, DP1, and DP1m were lethal at 7.5 μM and were not lethal at the lower doses.
The lethality of the high dose was verified by dosing one animal with the lethal dose determined by Replicate 1. The rats used for the evaluation were remaining from the original shipment and were naive for treatment. The doses were the following: D5F, 10.0 μM; DP1, 10.0 μM; and DP1m, 10.0 μM.

[2] = ALD evaluation, iv administration in mouse; format: in vivo; details: for μg/dose (Miv), lethal dose / μmol Miv, lethal dose: iv administration in mouse; for [μM] T = 0, lethal concentration: second value of the cell (single value for D5-F), assigned to mouse iv because it fits μmol Miv; for Lethality, verification dosing / Lethality: mice; for Lethality, verification dosing: one animal previously exposed to 0.01 μM
Experimental: as §1, §2, §3
Replicate 2: For D5F and DP1, the high dose was diluted to 7.5 μM for the second replicate. The doses administered were 7.5, 5.0, 1.0, 0.5, 0.25, 0.1, 0.05, 0.025, and 0.01 μM. D5F was lethal at 7.5 μM, whereas DP1 was not. DP1m was again not lethal to the mice over the treatment levels delivered.
The effects of the highest dose (lethal--D5F and DP1, nonlethal--DP1 m) were verified by dosing one animal with the effective or highest no effect concentration used in Replicate 1. In the case of D5F, the dose of 7.5 μM was used to verify lethality observed in Replicate 2. The mice treated with these compounds were previously exposed to the lowest dose 0.01 μM. The doses were the following: D5F, 7.5 μM; DP1, 10.0 μM; and DP1m, 10.0 μM.

[3] = ALD evaluation, intramuscular administration in rat; format: in vivo
Experimental: as §1, §2
For D5F and DP1, two replicates were performed with rats. In the first replicate, the animals (one animal/dose) were exposed to a range of doses; 10.0, 1.0, 0.1, and 0.01 μM. The dose range used was smaller than that originally planned due to the availability of the compound to prepare an adequate amount of dosing solution.

[4] = Solubility at the concentration required for im administration; format: physicochemical
[5] = rats, iv, Replicate 1, lower concentrations
[6] = rats, iv, Replicate 2, lower doses (5.0 to 0.1 μM)
[7] = iv, Replicate 1, lower concentrations (5.0 to 0.01 μM)

SMILES | [μM] T = 0, lethal concentration [1] [µM] | μg/dose (Riv), lethal dose [1] | μmol Riv, lethal dose [1] [µmol] | μg/dose (Miv), lethal dose [2] [μg/dose] | μmol Miv, lethal dose [2] [µmol] | [μM] T = 0, lethal concentration [2] [µM] | μg/dose (Rim), lethal dose [3] | μmol Rim, lethal dose [3] | Lethality, verification dosing ([1]; rats, iv) | Lethality ([1]; rats, iv, Replicate 1, 10.0 μM) | Lethality [1, 5] | Lethality ([1]; rats, iv, Replicate 2, 7.5 μM) | Lethality [1, 6] | Lethality, verification dosing ([2]; iv, 10.0 μM) | Lethality ([2]; iv, Replicate 1, 10.0 μM) | Lethality [2, 7] | other results
CC[C@H](C)[C@H](NC(=O)[C@H](CCCCN)NC(=O)[C@H](CCCNC(=N)N)NC(=O)[C@H](C)NC(=O)[C@H](CC(C)C)NC(=O)[C@H](CCCCN)NC(=O)[C@H](CCCCN)NC(=O)[C@H](CC(C)C)NC(=O)[C@H](CCCNC(=N)N)NC(=O)[C@H](CCCNC(=N)N)NC(=O)CNC(=O)[C@@H](NC(=O)[C@H](CCCNC(=N)N)NC(=O)[C@H](CCCCN)NC(=O)[C@@H](NC(=O)[C@H](C)NC(=O)[C@H](CCCNC(=N)N)NC(=O)[C@H](CCCCN)NC(=O)[C@H](CCCNC(=N)N)NC(=O)[C@@H](N)CCCCN)C(C)C)C(C)C)C(=O)N[C@@H](C)C(=O)N[C@@H](CCCNC(=N)N)C(=O)N[C@@H](CC(C)C)C(=O)NCC(=O)N[C@H](C(=O)N[C@@H](C)C(=O)N[C@@H](Cc1ccccc1)C(=O)O)C(C)C [Peptide 13] (H-KRKRAVKRVGRRLKKLARKIARLGVAF-OH) | 2.0 | 1,269.78 μg/dose | 0.4 | 158.72 | 0.05 | 2.5 | not lethal | not lethal |  |  |  |  |  |  |  |  | 
CC(C)C[C@H](NC(=O)[C@H](C)NC(=O)[C@H](CCCCN(C)C)NC(=O)[C@H](CCCCN(C)C)NC(=O)[C@H](CC(C)C)NC(=O)[C@H](C)NC(=O)[C@H](CCCCN(C)C)NC(=O)[C@H](CCCCN(C)C)NC(=O)[C@H](CC(C)C)NC(=O)[C@H](CCCCN(C)C)NC(=O)[C@H](CCCCN(C)C)NC(=O)[C@H](CC(C)C)NC(=O)[C@H](C)NC(=O)[C@H](CCCCN(C)C)NC(=O)[C@H](CCCCN(C)C)NC(=O)[C@H](CC(C)C)NC(=O)[C@H](C)NC(=O)[C@H](CCCCN(C)C)NC(=O)[C@H](CC(C)C)NC(=O)[C@H](C)NC(=O)[C@H](CC(C)C)NC(=O)[C@H](C)NC(=O)[C@H](Cc1ccccc1)N(C)C)C(=O)O [Peptide 20] (NMe2Phe-ALAL[Lys(Me2)]AL[Lys(Me2)][Lys(Me2)]AL[Lys(Me2)][Lys(Me2)]L[Lys(Me2)][Lys(Me2)]AL[Lys(Me2)][Lys(Me2)]AL-OH) | 7.5 | 5,139.41 μg/dose | 1.5 | 685.36 | 0.2 | 10.0 | not lethal | not lethal | dead within four hours | lethal | No lethality | lethal | not lethal | dead within four hours | not lethal | No lethality | Lethality ([2]; iv, Replicate 2, over the treatment levels delivered): not lethal; Clinical Observations ([2]; mouse, iv, 10 μM, end of tail later sloughed off): discoloration of the tail; solubility [4]: poor solubility
CC(C)C[C@H](NC(=O)[C@H](C)NC(=O)[C@H](CCCCN)NC(=O)[C@H](CCCCN)NC(=O)[C@H](CC(C)C)NC(=O)[C@H](C)NC(=O)[C@H](CCCCN)NC(=O)[C@H](CCCCN)NC(=O)[C@H](CC(C)C)NC(=O)[C@H](CCCCN)NC(=O)[C@H](CCCCN)NC(=O)[C@H](CC(C)C)NC(=O)[C@H](C)NC(=O)[C@H](CCCCN)NC(=O)[C@H](CCCCN)NC(=O)[C@H](CC(C)C)NC(=O)[C@H](C)NC(=O)[C@H](CCCCN)NC(=O)[C@H](CC(C)C)NC(=O)[C@H](C)NC(=O)[C@H](CC(C)C)NC(=O)[C@H](C)NC(=O)[C@@H](N)Cc1ccccc1)C(=O)O [Peptide 19] (H-FALALKALKKALKKLKKALKKAL-OH) | 7.5 | 4,689.41 μg/dose | 1.5 | 625.36 | 0.2 | 10.0 | not lethal | not lethal | dead within four hours | lethal | No lethality | lethal | not lethal | dead within four hours | lethal | No lethality | 
CC[C@H](C)[C@H](NC(=O)[C@H](C)NC(=O)[C@H](CCCNC(=N)N)NC(=O)[C@H](CC(C)C)NC(=O)CNC(=O)[C@@H](NC(=O)[C@H](C)NC(=O)[C@@H](N)Cc1ccccc1)C(C)C)C(=O)N[C@@H](CCCCN)C(=O)N[C@@H](CCCNC(=N)N)C(=O)N[C@@H](C)C(=O)N[C@@H](CC(C)C)C(=O)N[C@@H](CCCCN)C(=O)N[C@@H](CCCCN)C(=O)N[C@@H](CC(C)C)C(=O)N[C@@H](CCCNC(=N)N)C(=O)N[C@@H](CCCNC(=N)N)C(=O)NCC(=O)N[C@H](C(=O)N[C@@H](CCCNC(=N)N)C(=O)N[C@@H](CCCCN)C(=O)N[C@H](C(=O)N[C@@H](C)C(=O)N[C@@H](CCCCN)C(=O)N[C@@H](CC(=O)O)C(=O)N[C@@H](CC(C)C)C(=O)O)C(C)C)C(C)C [Peptide 16] (H-FAVGLRAIKRALKKLRRGVRKVAKDL-OH) | 7.5 | 5,416.19 μg/dose | 1.5 | 541.62 | 0.15 | 7.5 | not lethal | not lethal | dead within four hours | lethal | No lethality | lethal | not lethal |  | lethal | No lethality | Clinical Observations ([1]; rats, iv, 2.5 and 5.0 μM, ends of tails later sloughed off): discoloration of the tail; Lethality, verification dosing ([2]; iv, 7.5 μM): dead within four hours; Lethality ([2]; iv, Replicate 2, 7.5 μM): lethal
